Assay results taken from patent publication US8980917B2, “Methods for treating or preventing brain infections” (The Johns Hopkins University, priority 2008, dated 2015).
Entries after “also recorded” stand apart in the source; their conditions may differ.

Key:
E. coli K1 strain RS218 [1] = assay: Mouse model of experimental hematogenous E. coli meningitis (cPLA2α-/- and wild type BALB/c mice); type: in vivo; conditions: i.v. 1.2 μg/mouse in 50 μl PBS 30 mins before bacterial injection
Protocol: cPLA2α−/− and wild type mice, either male or female, […] that had been backcrossed on the BALB/c strain for >10 generations were used^14. All procedures and handling techniques were approved by The Johns Hopkins Animal Care and Use Committee.
Each mouse received 1×10^7 CFU of E. coli K1 strain RS218 in 100 μl PBS via the tail vein. One hour later, mouse chest was cut open, and blood from right ventricle was collected and plated for bacteria counts, which were expressed as CFUs/ml of blood. The mouse was then perfused with a mammalian Ringer's solution by transcardiac perfusion through a 23-gauge needle inserted into the left ventricle of the heart under the perfusion pressure of about 100 mmHg. The perfusate exited through a cut in the right atrium. […] The brains were removed, weighed and homogenized in 2 ml RPMI followed by plating for bacterial counts, which were expressed as CFUs/gm. Since E. coli K1 penetration into the brain is shown to depend on the magnitude of bacteremia^5,7, bacterial penetration into the brain was also expressed as [(brain CFUs per gm)/(blood CFUs per ml)]×100. Kidneys and spleens were also removed, homogenized and plated for determination of bacterial counts, which were expressed as CFUs/gm. […]

C. neoformans = assay: Mouse model of C. neoformans meningitis/meningoencephalitis following intravenous inoculation; type: in vivo; conditions: strain B-3501A; cPLA2α-/- mice; i.v. 1.2 μg/mouse 30 mins before C. neoformans injection; 24 hours
Protocol: The mouse model of Cryptococcal meningitis/meningoencephalitis following intravenous inoculation was used to determine the hematogenous dissemination of C. neoformans to the brain as described previously (7, 8). C. neoformans strains grown on 1% yeast extracts, 2% peptone and 2% dextrose (YPD) agar were suspended in phosphate-buffered saline (PBS, pH 7.4) and counted with a hemocytometer to determine the yeast cell number. This suspension was also cultured on YPD agar plates, and colonies (CFUs) counted after 3 days of incubation at 30° C. as previously described (11). The inoculum size was confirmed by CFUs.
Briefly, female BALB/c mice received 10^5 yeast cells via the tail vein. 24 hours later, the blood specimens were obtained for determination of CFUs, and the animals perfused with sterile Ringer's solution until the perfused solution became colorless. The brains were removed, weighed, homogenized and cultured on YPD agar for determination of CFUs.
cPLA2α. We examined the role of host cPLA2α in C. neoforman strain B-3501A penetration into the brain by studying cPLA2α−/− mice as compared to their strain-matched wild type mice. Each animal received 10^5 yeast cells via the tail vein. 24 hours later, the blood specimens were obtained for determination of CFUs, and the animals perfused with sterile Ringer's solution until the perfused solution became colorless. […]

blood-brain barrier = assay: Blood-brain barrier permeability by Evans blue dye extravasation into the brain; type: in vivo, mouse; conditions: cPLA2α-/- mice
HBMEC monolayers = assay: Integrity of HBMEC monolayers by TEER before and after transcytosis assays; type: cell-based, human; conditions: at 50 μM
Text: We also examined the effect of C. neoformans traversal on the HBMEC monolayer integrity, as measured by passive diffusion of ^3H-inulin and TEER at the end of the transcytosis experiment as described previously (7).

E. coli K1 strain RS218 [2] = assay: Infant rat model of experimental hematogenous E. coli meningitis; type: in vivo; conditions: 5-day-old rats, 9 animals; i.p. 50 μg/10 gm one hour before bacteria; p < 0.001 by Fisher's exact test
Protocol: Experimental hematogenous E. coli meningitis was induced in 5-day old rats as previously described (9, 10, 14, 28). Briefly, outbred, specific-pathogen-free pregnant Sprague-Dawley rats with timed conception were purchased from Charles River Breeding laboratory (Wilmington, Mass.). The rats delivered in our vivarium 5 to 7 days after arrival. At 5 days of age, all members of each litter were randomly divided into two groups, to receive intraperitoneally montelukast (50 μg/10 gm of weight in 50 μl PBS) or vehicle control (3.3% DMSO in 50 μl PBS). One hour later, each animal received 1×10^7 CFU of E. coli K1 strain RS218 via intracardiac injection. At one hour after bacterial injection, blood and CSF specimens were obtained as described previously (9, 10, 14, 28) for quantitative cultures. The development of E. coli meningitis (defined as positive CSF cultures) was compared between the two groups of animals.
We also examined one of the CysLT1 antagonists for its effect on E. coli K1 penetration into the brain in our well-characterized infant rat model of experimental hematogenous E. coli meningitis (9, 10, 14, 28). At 5 days of age, all members of each litter were randomly divided to receive intraperitoneally montelukast or vehicle control. […] At one hour after bacterial inoculation, blood and cerebrospinal fluid (CSF) specimens were obtained for quantitative cultures.

[3] = developed for asthma; cited from earlier work

Structure (SMILES) | E. coli K1 penetration into the brain (brain CFU/gm and percent of brain CFU/blood CFU) (E. coli K1 strain RS218 [1]) | C. neoformans penetration into the brain (CFU/gm) (C. neoformans) | blood-brain barrier permeability (Evans blue extravasation into the brain) (blood-brain barrier; 1.2 μg i.v. 30 min before E. coli RS218 injection) | blood-brain barrier permeability (Evans blue extravasation into the brain) (blood-brain barrier; 1.2 μg/mouse i.v. 30 mins before C. neoformans injection) | integrity of the HBMEC monolayers (TEER) (HBMEC monolayers) | % of animals with meningitis (positive CSF cultures) (E. coli K1 strain RS218 [2]) [%] | No. of animals with meningitis (positive CSF cultures) (E. coli K1 strain RS218 [2]) | safety and tolerability in clinical trials [3]
CCCCC/C=C\C/C=C\C/C=C\C/C=C\CCCC(=O)O [arachidonic acid, Arachidonic acid] | significantly enhanced E. coli K1 penetration into the brain to the level observed in the wild type mice | significantly enhanced C. neoformans penetration into the brain to the level observed in the wild type mice | no significantly increased extravasation of intravenously administered Evans blue dye into the brain; also recorded: did not affect the blood-brain barrier permeability | not accompanied by any change in the blood-brain barrier permeability |  |  |  | 
CC(C)(O)c1ccccc1CC[C@@H](SCC1(CC(=O)O)CC1)c1cccc(/C=C/c2ccc3ccc(Cl)cc3n2)c1 [montelukast] |  |  |  |  | did not affect the integrity of the HBMEC monolayers | 22 | 2 | safe and well tolerated
